Reference: patent US20150065466A1, “NOVEL DXR INHIBITORS FOR ANTIMICROBIAL THERAPY” (priority 2012, published 2015)
Where two headings read alike, the source gives them in different places.

Assays:
PfDXR [1] = target: T1, PfDXR (Plasmodium falciparum, UniProt Q8IKG4); conditions: Table 2, data from literature (footnote a); cited from earlier work
T1 sequence (Q8IKG4 75-488): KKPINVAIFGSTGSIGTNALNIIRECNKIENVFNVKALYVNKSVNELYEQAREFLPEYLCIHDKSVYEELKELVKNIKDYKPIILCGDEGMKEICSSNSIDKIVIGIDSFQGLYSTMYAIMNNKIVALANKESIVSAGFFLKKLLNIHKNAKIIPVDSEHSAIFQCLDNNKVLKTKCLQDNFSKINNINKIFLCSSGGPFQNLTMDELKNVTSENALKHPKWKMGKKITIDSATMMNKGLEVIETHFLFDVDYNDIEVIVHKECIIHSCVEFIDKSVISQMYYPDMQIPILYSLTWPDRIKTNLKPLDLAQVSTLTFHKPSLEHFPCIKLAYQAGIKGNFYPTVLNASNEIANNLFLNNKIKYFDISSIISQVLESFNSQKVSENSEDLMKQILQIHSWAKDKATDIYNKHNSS

TgDXR = TgDXR (Toxoplasma gondii, UniProt S8ESX0); type: biochemical, T. gondii
EcDXR [2] = target: T2, EcDXR (Escherichia coli, UniProt P45568); conditions: cited from earlier work
P. falciparum Dd2 strain = test: P. falciparum proliferation, DAPI fluorescence assay, Dd2 strain; type: cell-based; conditions: read-out: IC50 against P. falciparum proliferation, Dd2 strain
P. falciparum 3D7 strain = test: P. falciparum proliferation, DAPI fluorescence assay, 3D7 strain; type: cell-based; conditions: read-out: IC50 against P. falciparum proliferation, 3D7 strain
A549 = test: cytotoxicity, MTS assay, A549; type: cell-based, human; conditions: at 300 μM, 48 h
EcDXR [3] = target: T2, EcDXR; test: recombinant EcDXR enzyme inhibition; type: biochemical, E. coli
WI-38 (fibroblast) = test: cytotoxicity, MTS assay, WI-38; type: cell-based, human; conditions: at 300 μM, 48 h
Experimental: PfDXR inhibitors SYC-466, -467, -408, -409 were tested against three non-cancerous human cell lines, i.e., WI-38 (fibroblast), HEK293 (kidney) and Beas2B (lung epithelial), to evaluate the potential toxicity of these compounds, using an assay routinely perform (41). 1×10^5 cells are inoculated into each well of a 96-well plate and cultured in Dulbecco's Modified Eagle's Medium (DMEM) supplemented with 10% fetal bovine serum at 37° C. in a 5% CO2 atmosphere with 100% humidity overnight for cell attachment. After addition of compounds (from 0.1-300 μM), plates are incubated for 48 h after which cell viability are assessed by the [3-(4,5-dimethylthiazol-2-yl)-5-(3-carboxymethoxyphenyl)-2-(4-sulfophenyl)-2H-tetrazolium, inner salt (MTS) assay, using a commercially available kit (Promega). IC50s of each compound can be calculated from dose response curves.

Hela = test: cytotoxicity, MTS assay, Hela; type: cell-based, human; conditions: at 300 μM, 48 h
PfDXR [4] = target: T1, PfDXR; test: recombinant PfDXR enzyme inhibition; type: biochemical, P. falciparum
P. aeruginosa isolates = conditions: Neu and Kamimura, 1981; cited from earlier work
[5] = tested on: T. gondii engineered to express the bacterial GlpT; conditions: Nair et al., 2011; cited from earlier work
[6] = cited from earlier work; for half life in plasma: human plasma, patients; for oral availability: human, in vivo
T. gondii = conditions: study from the Moreno group; cited from earlier work
[7] = 100 nM TgDXR, 4 mM MgCl2, 100 μM DXP, pH 7.6, read-out: Ki TgDXR
[8] = Plasmodium falciparum, DD2, Erythrocyte, 72 h
[9] = Plasmodium falciparum, 3D7, Erythrocyte, 72 h
[10] = Dd2 (multidrug resistant), erythrocyte stage, 3 days
[11] = 3D7 (chloroquine sensitive), erythrocyte stage, 3 days
[12] = read-out: Ki against recombinant EcDXR
[13] = Table 1, read-out: Enzyme Ki PfDXR

T2 sequence (P45568 whole entry): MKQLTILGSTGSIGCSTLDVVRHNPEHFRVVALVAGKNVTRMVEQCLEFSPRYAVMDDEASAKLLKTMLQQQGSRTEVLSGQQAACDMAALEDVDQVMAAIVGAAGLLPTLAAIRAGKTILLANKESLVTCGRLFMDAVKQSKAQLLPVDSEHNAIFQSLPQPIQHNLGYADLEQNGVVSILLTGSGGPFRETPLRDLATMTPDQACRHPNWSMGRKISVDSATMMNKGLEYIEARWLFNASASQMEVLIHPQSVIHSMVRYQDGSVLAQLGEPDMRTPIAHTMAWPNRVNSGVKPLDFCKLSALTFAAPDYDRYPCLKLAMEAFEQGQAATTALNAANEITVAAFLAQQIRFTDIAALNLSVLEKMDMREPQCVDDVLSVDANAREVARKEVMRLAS
Chain of TgDXR (S8ESX0 entry or part of it): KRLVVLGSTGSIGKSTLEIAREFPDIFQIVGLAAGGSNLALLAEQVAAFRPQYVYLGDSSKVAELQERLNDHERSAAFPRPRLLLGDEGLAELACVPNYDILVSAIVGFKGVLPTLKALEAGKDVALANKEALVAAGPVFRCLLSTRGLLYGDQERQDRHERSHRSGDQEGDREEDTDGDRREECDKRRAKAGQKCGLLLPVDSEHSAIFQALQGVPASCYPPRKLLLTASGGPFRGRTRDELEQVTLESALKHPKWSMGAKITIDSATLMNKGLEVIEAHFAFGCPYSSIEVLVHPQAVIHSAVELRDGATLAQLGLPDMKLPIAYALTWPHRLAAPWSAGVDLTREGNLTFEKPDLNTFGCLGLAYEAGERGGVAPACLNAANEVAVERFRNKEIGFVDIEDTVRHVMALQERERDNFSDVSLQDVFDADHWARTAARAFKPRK

Compound	Ki (PfDXR [1]) [nM]	Ki (TgDXR; [7]) [nM]	Ki (TgDXR; read-out: Ki against TgDXR) [nM]	Ki (EcDXR [2]) [nM]	cytotoxicity against growth of A549 cells (A549)	cytotoxicity against growth of WI-38 cells (WI-38 (fibroblast))	cytotoxicity against growth of Hela cells (Hela)	also measured
O=CN(O)CCC(c1ccc(Cl)c(Cl)c1)P(=O)(O)O (stereo not drawn) [Compound 10]	15	77	77	58				
CC(=O)N(O)CCCP(=O)(O)O [FR900098]	11	48	48					Ki (EcDXR [2]; Table 2, data from literature (footnote a)): 19 nM
O=CN(O)CCC(c1cccnc1)P(=O)(O)O (stereo not drawn) [SYC-466]	13		55		essentially no cytotoxicity	essentially no cytotoxicity	essentially no cytotoxicity	IC50 (P. falciparum Dd2 strain; [8]): 180 nM; IC50 (P. falciparum 3D7 strain; [9]): 340 nM; Ki (EcDXR [3]; Table 1, read-out: Enzyme Ki EcDXR): 87 nM; Ki (PfDXR [4]): 13 nM
CC(=O)N(O)CCC(c1cccnc1)P(=O)(O)O (stereo not drawn) [SYC-408]		970		42	essentially no cytotoxicity	essentially no cytotoxicity	essentially no cytotoxicity	IC50 (P. falciparum Dd2 strain; [10]): 310 nM; IC50 (P. falciparum 3D7 strain; [11]): 440 nM; Ki (EcDXR [3]; [12]): 42 nM; Ki (PfDXR [4]; listed as 5a, read-out: Ki against PfDXR): 1.9 nM; fold more active than fosmidomycin against PfDXR (PfDXR [4]; ratio of Ki values): ~10 fold
CCN(CC)CCCC(C)Nc1ccnc2cc(Cl)ccc12 (stereo not drawn) [chloroquinone, reference compound]								IC50 (P. falciparum Dd2 strain; Plasmodium falciparum, 72 h, Dd2 (multidrug resistant), erythrocyte stage, 3 days): 111 nM; IC50 (P. falciparum 3D7 strain; Plasmodium falciparum, 72 h, 3D7 (chloroquine sensitive), erythrocyte stage, 3 days): 28 nM
CC(=O)N(O)CCC(c1ccncc1)P(=O)(O)O (stereo not drawn) [SYC-409]		530		82	essentially no cytotoxicity	essentially no cytotoxicity	essentially no cytotoxicity	IC50 (P. falciparum Dd2 strain; [10]): 460 nM; IC50 (P. falciparum 3D7 strain; [11]): 630 nM; Ki (EcDXR [3]; [12]): 82 nM; Ki (PfDXR [4]; [13]): 13 nM
gentamicin								MIC50 (inhibits 50% of P. aeruginosa isolates) (P. aeruginosa isolates): 12.5 µg/mL
O=P(O)(O)Cc1ccccn1 [Compound 3]	3300	4100		2300				Ki against TgDXR, in words (TgDXR): low μM range
O=CN(O)CCC(c1ccncc1)P(=O)(O)O (stereo not drawn) [SYC-467]		79	79	35	essentially no cytotoxicity	essentially no cytotoxicity	essentially no cytotoxicity	IC50 (P. falciparum Dd2 strain; [10]): 170 nM; IC50 (P. falciparum 3D7 strain; [11]): 180 nM; Ki (EcDXR [3]; [12]): 35 nM; Ki (PfDXR [4]; [13]): 8.9 nM
CC(=O)N(O)CCC(c1ccc(Cl)c(Cl)c1)P(=O)(O)O (stereo not drawn) [Compound 11]	25	220		36				
O=CN(O)CCCP(=O)(O)O [Fosmidomycin]			90					IC50 (P. falciparum Dd2 strain; [8]): 440 nM; killing of T. gondii expressing GlpT [5]: can effectively kill; IC50 (P. falciparum 3D7 strain; [9]): 1170 nM; MIC50 (inhibits 50% of P. aeruginosa isolates) (P. aeruginosa isolates): 6.25 µg/mL; half life in plasma [6]: 30 to 90 min; half life in plasma ([6]; listed as 1): ~60 min; oral availability [6]: low; oral availability ([6]; listed as 1): poor; activity on T. gondii parasite (T. gondii): no activity
